Test results as given in patent publication US20240018146A1, “COMPOSITIONS AND METHODS OF USING THE SAME FOR TREATMENT OF NEURODEGENERATIVE AND MITOCHONDRIAL DISEASE” (MITOKININ, INC., priority 2020, published 2024).
Converted amounts (≈) assume the structure as drawn. Like-named read-outs stand apart in the source and are kept apart here.

Tests used:
[1] = Kinetic solubility; format: physicochemical
[2] = Mitotoxicity / Mitotox safety margin (therapeutic window); format: cell-based; conditions: for mitotoxicity: FIG. 5-7
[3] = tested on: HeLa MKYP cells; test: Human mitophagy assay (HeLa mKeima assay, FACS); format: cell-based; conditions: for EC50: Homo sapiens, HeLa
In short: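 HeLa cells carrying the pH-sensitive mtKeima tag incubated 16 h with compound at several concentrations, then 1 uM FCCP/oligomycin for 6 h. FACS detects mitochondria in lysosomes through the Keima emission shift, quantified as percentage of cells in mitophagy.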

[4] = tested on: HeLa MKYP cells; test: Cell death measured by DAPI staining, with 1 μM FCCP/oligomycin or no toxin (no FO); format: cell-based; conditions: for E105 death at 8.3 μM (no FO): 8.3 μM compound; for Max cell death at 25 μM compound, 1 uM FO (%) / Cell death at 25 μM (no FO) (%) / E104 death at 25 μM (no FO): 25 μM compound
In short: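 HeLa MKYP cells were treated with compounds alongside 1 μM FCCP/oligomycin or no toxin for 6 or 6.5 h. Cell death was scored by DAPI staining, with H2O2 treatment as the death control.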

[5] = tested on: pS129 α-syn; test: Preformed fibril (PFF) model in primary neuron culture, pS129 α-syn; format: cell-based; conditions: FIG. 8A-C
Experimental: 4. Preformed Fibril Model
Mouse and human alpha-synuclein monomers have been sourced commercially, then pre-formed fibrils have been generated as per the detailed protocol provided by the MJFF. For in vitro experiments primary hippocampal neurons isolated from P0 pups were grown for 7 days after which PFFs at 5 ug/ml were introduced Pre-formed fibrils will be introduced via stereotactic injection into the striatum of wt (C57BL/6J, Jax #000664) and transgenic A53T mice (B6;C3-Tg(Prnp-SNCA*A53T)83Vle/J, Jax #004479). Cohorts of drug-treated (oral gavage) and untreated animals will then be allowed to age for up to 6 months, at which point they will be sacrificed and perfused. Brains will be removed and fixed, then sectioned for analysis. We anticipate that untreated A53T animals will show significant spreading of aggregated alpha-synuclein pathology and pS129 staining, as well as some possible neurodegeneration; wt animals are also expected to show pS129 synuclein staining and synuclein aggregation, albeit less than that seen in the A53T background.

[6] = Inspection of crystallization and round cells; format: physicochemical; set-up: key: 1=yes crystals; 0=no crystals
Experimental: 5. Inspection of Crystallization and Round Cells
Briefly, the Hela MKYP (Mito-Keima/YFP-Parkin) cells were seeded at 10K cells/well. EP/MTK compounds were added at seeding (cells were still in suspension). The cells were incubated with the EP/MTK compounds for 16 hours, then 1 μM FCCP/oligomycin was added for 6 hours. Prior to harvesting, cells were scored by eye under 20× magnification for the presence or absence of crystalline or aggregated compound, or round cells.

[7] = HeLa mKeima assay, read-out: Mitophagy EC50 (HeLa mKeima assay)
[8] = mitophagy, 1 μM FCCP/oligomycin, read-out: E100 EC50
[9] = read-out: Mitophagy induction EC50
[10] = mitophagy, 1 μM FCCP/oligomycin
[11] = 25.0 μM compound, HeLa MKYP culture, 20× magnification
[12] = average ± spread, read-out: E100 EC50 (μM) (average)

SMILES	solubility kinetic [1] [µM]	Mitotox safety margin (Therapeutic window) [2]	Mito-Safety Index (highest safe dose/EC50) [2]	Highest safe dose (μM) (mitotox or cytotox) [2] [µM]	E102 max mitophagy, fold over DMSO ([3]; 1 μM FCCP/oligomycin) [fold over DMSO]	EC50 [3, 7] [µM]	EC50 [3, 8] [µM]	EC50 [3, 9] [µM]	E101 lowest effective dose [3, 10] [µM]	E105 death at 8.3 μM (no FO) [4]	Max cell death at 25 μM compound, 1 uM FO (%) [4] [%]	Cell death at 25 μM (no FO) (%) [4] [%]	E104 death at 25 μM (no FO) [4]	Highest safe dose (cytotoxicity; no FO; safe means DAPI+ <20%) [4] [µM]	E103 max death with 1 μM FO [4]	Max % death with 1 μM FO [4] [%]	mitotoxicity [2]	other results
FC(F)(F)c1cc2c(N[C@@H]3c4ccccc4CC[C@H]3N3CCOCC3)ncnc2[nH]1 (racemic) [EP-0037821]	14.1 (≈ 5.89 µg/mL)	++++ (++++ = 30<)	22.05	8.3	9.53	0.4	0.45	0.38	0.30	2.87	71.62	41.03	25.17	13.9	62.82	68.5	–	–
c1ccc2c(c1)CC[C@H](N1CCOCC1)[C@H]2Nc1ncnc2[nH]c(C3CC3)cc12 (racemic) [EP-0039677]	1.56 (≈ 0.608 µg/mL)	++++ (++++ = 30<)	13.51	2.8	–	0.21	–	0.21	–	–	10.2	3.02	–	25.0	–	10.2	–	–
FC(F)(F)c1cc2c(N[C@H]3c4ccccc4CC[C@@H]3N3CCOCC3)ncnc2[nH]1 (single isomer, unassigned) [EP-0038098]	14.1 (≈ 5.89 µg/mL)	++++ (++++ = 30<)	–	–	9.78	0.22	0.22	–	0.10	2.59	24	5.29	5.29	–	24.02	–	–	pathological α-synuclein levels in primary neurons [5]: reduce pathological α-synuclein levels; EC50 ([3]; text statement referring to Tables 2A and 2B, FIG. 1A-F, read-out: EC50): < 0.3 µM; toxicity ([4]; text statement referring to Tables 2A and 2B, FIG. 1A-F): less than 10%
FC(F)(F)c1cc2c(N[C@H]3c4ccccc4CC[C@@H]3N3CC4(CCOCC4)C3)ncnc2[nH]1 (single isomer, unassigned) [EP-0038463]	153 (≈ 70 µg/mL)	+ (+ = <10)	3.20	8.3	3.95	2.59	2.59	2.59	2.78	4.21	87.805	59.8	59.77	8.3	87.81	87.8	low mitotoxicity	visual inspection of crystallization ([6]; 0.1 μM compound): 0; visual inspection of crystallization ([6]; 0.3 μM compound): 0; visual inspection of crystallization ([6]; 0.9 μM compound): 0; visual inspection of crystallization ([6]; 2.8 μM compound): 0; visual inspection of crystallization ([6]; 8.3 μM compound): 0; visual inspection of crystallization [6, 11]: 0
Fc1ccc2c(c1)CC[C@H](N1CCOCC1)[C@H]2Nc1ncnc2[nH]c(C(F)(F)F)cc12 (single isomer, unassigned) [EP-0038503]	1.56 (≈ 0.679 µg/mL)	++ (++ = 10 < x < 20)	17.40	8.3	5.11	0.38	0.58	0.48	8.33	–	8.15	2.53	–	25.0	4.37	6.3	low mitotoxicity	EC50 [3, 12]: 0.48 ± 0.1 µM
Fc1ccc2c(c1)CC[C@@H](N1CCOCC1)[C@@H]2Nc1ncnc2[nH]c(C(F)(F)F)cc12 (single isomer, unassigned) [EP-0038504]	1.56 (≈ 0.679 µg/mL)	+ (+ = <10)	1.76	25.0	4.67	14.2	14.2	14.2	8.33	2.93	4.59	3.1	3.10	25.0	4.59	4.6	low mitotoxicity	–
Fc1ccc2c(c1)CC[C@H](N1CCOCC1)[C@H]2Nc1ncnc2[nH]c(C3CC3)cc12 (single isomer, unassigned) [EP-0038521]	1.56 (≈ 0.636 µg/mL)	+++ (+++ = 20 < x < 30)	24.49	8.3	5.24	0.37	0.37	0.34	2.78	–	6.77	3.42	–	25.0	6.77	7.6	low mitotoxicity	EC50 [3, 12]: 0.3 ± 0.07 µM
FC(F)(F)c1cc2c(N[C@H]3c4ccccc4CC[C@@H]3N3C[C@H]4COC[C@H]4C3)ncnc2[nH]1 (single isomer, unassigned) [EP-0038582]	–	–	–	25.0	–	–	–	> 25	–	–	5.87	3.77	–	25.0	–	4.3	–	solubility kinetic ([1]; kinetic from dmso stock): 1.56 µM (≈ 0.692 µg/mL); Mitophagy EC50 (HeLa mKeima assay) (μM) ([3]; HeLa mKeima assay): Minimal
FC(F)(F)c1cc2c(N[C@@H]3c4ccccc4CC[C@H]3N3C[C@H]4COC[C@H]4C3)ncnc2[nH]1 (single isomer, unassigned) [EP-0038583]	1.56 (≈ 0.692 µg/mL)	+ (+ = <10)	158.93	9.1	–	0.07	–	0.06	–	–	39.5	6.03	–	25.0	–	18.1	–	–
FC(F)(F)c1cc2c(N[C@@H]3c4ccccc4CC[C@@H]3N3CCOCC3)ncnc2[nH]1 [EP-0037820]	14.5 (≈ 6.05 µg/mL)	+ (+ = <10)	–	–	–	17.4	–	20.3	–	–	58	41.4	–	16.7	–	60.7	–	–
FC(F)(F)c1cc2c(N[C@H]3c4ccccc4CC[C@@H]3N3C[C@H]4COC[C@H]4C3)ncnc2[nH]1 [EP-0038461]	1.56 (≈ 0.692 µg/mL)	+++ (+++ = 20 < x < 30)	27.53	2.8	5.44	0.11	0.11	0.1	0.93	–	7.97	4.31	–	25.0	7.97	9.7	low mitotoxicity	visual inspection of crystallization ([6]; 0.1 μM compound): 0; visual inspection of crystallization ([6]; 0.3 μM compound): 0; visual inspection of crystallization ([6]; 0.9 μM compound): 0; visual inspection of crystallization ([6]; 2.8 μM compound): 0; visual inspection of crystallization ([6]; 8.3 μM compound): 0; visual inspection of crystallization [6, 11]: 1; EC50 [3, 12]: 0.1 ± 0.01 µM
